Assay results taken from ChEMBL document CHEMBL1148870, “Novel inhibitors of VEGF receptors-1 and -2 based on azole-5-carboxamide templates” (Bioorg Med Chem Lett, 2007).

Experiments:
[1] = biological target: Vascular endothelial growth factor receptor 1 (Homo sapiens, UniProt P17948); test: Inhibition of VEGFR1 assessed as inhibition of phosphorylation in presence of 2 uM ATP by HTRF assay; assay type: functional
[2] = biological target: T1, Vascular endothelial growth factor receptor 2 (Homo sapiens, UniProt P35968); test: Inhibition of VEGFR2 assessed as inhibition of phosphorylation in presence of 2 uM ATP by HTRF assay; assay type: functional
[3] = biological target: T1, Vascular endothelial growth factor receptor 2; test: Inhibition of VEGFR2 assessed as inhibition of phosphorylation in human 293 cells by cell-based ELISA; assay type: functional, HEK293
[4] = biological target: Insulin-like growth factor 1 receptor (Homo sapiens) (UniProt P08069); test: Inhibition of IGF1R at 10 uM; parameters: scale not given: the % may be the effect or the level left
[5] = organism: Homo sapiens; test: Inhibition of InR at 10 uM; parameters: scale not given: the % may be the effect or the level left
[6] = biological target: Fibroblast growth factor receptor 1 (Homo sapiens) (UniProt P11362); test: Inhibition of FGFR1 at 10 uM; parameters: scale not given: the % may be the effect or the level left
Fibroblast growth factor receptor 1 (Homo sapiens), sequence (P11362 22-822 limits assumed): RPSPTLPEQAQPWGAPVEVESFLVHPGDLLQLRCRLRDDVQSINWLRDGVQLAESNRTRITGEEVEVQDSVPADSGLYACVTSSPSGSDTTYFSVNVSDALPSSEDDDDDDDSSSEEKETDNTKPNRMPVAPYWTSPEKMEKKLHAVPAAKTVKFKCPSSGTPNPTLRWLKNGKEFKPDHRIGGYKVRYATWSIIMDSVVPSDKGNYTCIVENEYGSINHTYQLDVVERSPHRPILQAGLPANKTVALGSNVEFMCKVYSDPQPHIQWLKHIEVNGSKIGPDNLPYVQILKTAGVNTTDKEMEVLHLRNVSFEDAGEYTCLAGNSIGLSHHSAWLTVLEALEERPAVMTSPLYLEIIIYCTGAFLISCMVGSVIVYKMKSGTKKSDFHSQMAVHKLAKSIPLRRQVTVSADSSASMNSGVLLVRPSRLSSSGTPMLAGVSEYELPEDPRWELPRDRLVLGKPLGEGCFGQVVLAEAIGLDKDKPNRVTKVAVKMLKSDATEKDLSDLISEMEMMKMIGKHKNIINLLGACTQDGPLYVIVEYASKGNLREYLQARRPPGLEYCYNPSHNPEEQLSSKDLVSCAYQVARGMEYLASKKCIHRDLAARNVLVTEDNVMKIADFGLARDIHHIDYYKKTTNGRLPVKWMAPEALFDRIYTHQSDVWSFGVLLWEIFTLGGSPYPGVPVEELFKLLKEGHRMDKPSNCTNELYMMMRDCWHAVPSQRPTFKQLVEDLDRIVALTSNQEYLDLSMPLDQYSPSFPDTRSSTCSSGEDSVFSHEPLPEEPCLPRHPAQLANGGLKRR

[7] = biological target: Receptor-type tyrosine-protein kinase FLT3 (Homo sapiens) (UniProt P36888); test: Inhibition of Flt3 at 10 uM; parameters: scale not given: the % may be the effect or the level left
Receptor-type tyrosine-protein kinase FLT3 (Homo sapiens), sequence (P36888 whole entry): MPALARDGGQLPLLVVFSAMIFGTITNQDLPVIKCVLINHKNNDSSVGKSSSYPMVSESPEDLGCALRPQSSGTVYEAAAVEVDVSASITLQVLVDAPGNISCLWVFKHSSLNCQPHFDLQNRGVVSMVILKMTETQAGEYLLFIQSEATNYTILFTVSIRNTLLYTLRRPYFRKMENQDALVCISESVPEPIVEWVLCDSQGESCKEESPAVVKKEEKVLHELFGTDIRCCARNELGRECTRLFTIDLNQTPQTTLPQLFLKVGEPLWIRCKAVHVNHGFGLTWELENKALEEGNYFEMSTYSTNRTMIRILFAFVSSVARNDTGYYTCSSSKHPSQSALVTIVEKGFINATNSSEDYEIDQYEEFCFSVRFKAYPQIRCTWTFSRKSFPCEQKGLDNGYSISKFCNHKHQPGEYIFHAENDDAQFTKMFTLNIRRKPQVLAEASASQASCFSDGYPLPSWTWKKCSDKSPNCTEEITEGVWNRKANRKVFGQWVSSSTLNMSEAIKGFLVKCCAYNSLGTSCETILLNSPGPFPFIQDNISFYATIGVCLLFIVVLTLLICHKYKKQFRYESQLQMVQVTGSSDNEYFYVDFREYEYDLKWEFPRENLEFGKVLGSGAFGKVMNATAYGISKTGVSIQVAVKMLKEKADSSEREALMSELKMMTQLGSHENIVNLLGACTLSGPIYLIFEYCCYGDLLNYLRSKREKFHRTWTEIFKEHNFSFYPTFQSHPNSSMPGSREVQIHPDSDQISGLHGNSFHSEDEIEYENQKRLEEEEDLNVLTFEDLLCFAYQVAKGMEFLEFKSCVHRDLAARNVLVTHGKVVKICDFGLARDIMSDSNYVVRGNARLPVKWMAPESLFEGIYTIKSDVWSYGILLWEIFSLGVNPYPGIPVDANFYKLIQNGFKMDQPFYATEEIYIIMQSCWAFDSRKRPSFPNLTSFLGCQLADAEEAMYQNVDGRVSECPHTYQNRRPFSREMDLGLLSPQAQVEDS

[8] = biological target: Vascular endothelial growth factor receptor 3 (Homo sapiens) (UniProt P35916); test: Inhibition of Flt4 at 10 uM; parameters: scale not given: the % may be the effect or the level left
[9] = biological target: Epidermal growth factor receptor (Homo sapiens) (UniProt P00533); test: Inhibition of ErbB1 at 10 uM; parameters: scale not given: the % may be the effect or the level left
Epidermal growth factor receptor (Homo sapiens), sequence (P00533 whole entry): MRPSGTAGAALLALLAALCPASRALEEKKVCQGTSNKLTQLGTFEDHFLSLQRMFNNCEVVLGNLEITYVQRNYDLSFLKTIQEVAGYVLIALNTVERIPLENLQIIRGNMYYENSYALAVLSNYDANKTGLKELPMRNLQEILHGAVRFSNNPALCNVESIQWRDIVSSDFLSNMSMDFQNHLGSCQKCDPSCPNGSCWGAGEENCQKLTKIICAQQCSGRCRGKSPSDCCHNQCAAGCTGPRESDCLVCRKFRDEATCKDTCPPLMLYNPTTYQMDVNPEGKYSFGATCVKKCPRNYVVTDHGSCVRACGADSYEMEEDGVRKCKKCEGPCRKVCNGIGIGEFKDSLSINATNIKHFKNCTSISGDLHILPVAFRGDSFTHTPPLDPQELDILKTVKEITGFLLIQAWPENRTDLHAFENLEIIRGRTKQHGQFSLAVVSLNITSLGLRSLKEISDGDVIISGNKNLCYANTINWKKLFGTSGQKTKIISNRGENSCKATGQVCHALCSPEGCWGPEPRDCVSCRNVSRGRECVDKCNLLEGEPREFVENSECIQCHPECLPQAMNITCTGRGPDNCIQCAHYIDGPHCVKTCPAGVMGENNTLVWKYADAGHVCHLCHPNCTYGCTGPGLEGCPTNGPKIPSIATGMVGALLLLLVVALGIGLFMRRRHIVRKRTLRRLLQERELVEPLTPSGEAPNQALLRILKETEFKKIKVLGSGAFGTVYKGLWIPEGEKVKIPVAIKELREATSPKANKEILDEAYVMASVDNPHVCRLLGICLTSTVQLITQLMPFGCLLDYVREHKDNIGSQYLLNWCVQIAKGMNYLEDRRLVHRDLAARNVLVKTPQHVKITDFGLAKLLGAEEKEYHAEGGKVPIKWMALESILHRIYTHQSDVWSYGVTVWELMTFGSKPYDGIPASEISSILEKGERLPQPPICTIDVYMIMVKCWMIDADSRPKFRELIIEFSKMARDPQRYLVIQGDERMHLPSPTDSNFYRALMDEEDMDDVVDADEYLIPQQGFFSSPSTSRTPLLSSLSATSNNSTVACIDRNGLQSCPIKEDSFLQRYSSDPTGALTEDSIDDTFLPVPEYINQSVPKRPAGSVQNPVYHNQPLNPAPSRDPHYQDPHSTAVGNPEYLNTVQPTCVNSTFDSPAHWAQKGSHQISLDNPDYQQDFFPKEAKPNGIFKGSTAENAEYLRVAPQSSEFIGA

[10] = biological target: Receptor tyrosine-protein kinase erbB-2 (Homo sapiens) (UniProt P04626); test: Inhibition of ErbB2/Her2 at 10 uM; parameters: scale not given: the % may be the effect or the level left
Receptor tyrosine-protein kinase erbB-2 (Homo sapiens), sequence (P04626 whole entry): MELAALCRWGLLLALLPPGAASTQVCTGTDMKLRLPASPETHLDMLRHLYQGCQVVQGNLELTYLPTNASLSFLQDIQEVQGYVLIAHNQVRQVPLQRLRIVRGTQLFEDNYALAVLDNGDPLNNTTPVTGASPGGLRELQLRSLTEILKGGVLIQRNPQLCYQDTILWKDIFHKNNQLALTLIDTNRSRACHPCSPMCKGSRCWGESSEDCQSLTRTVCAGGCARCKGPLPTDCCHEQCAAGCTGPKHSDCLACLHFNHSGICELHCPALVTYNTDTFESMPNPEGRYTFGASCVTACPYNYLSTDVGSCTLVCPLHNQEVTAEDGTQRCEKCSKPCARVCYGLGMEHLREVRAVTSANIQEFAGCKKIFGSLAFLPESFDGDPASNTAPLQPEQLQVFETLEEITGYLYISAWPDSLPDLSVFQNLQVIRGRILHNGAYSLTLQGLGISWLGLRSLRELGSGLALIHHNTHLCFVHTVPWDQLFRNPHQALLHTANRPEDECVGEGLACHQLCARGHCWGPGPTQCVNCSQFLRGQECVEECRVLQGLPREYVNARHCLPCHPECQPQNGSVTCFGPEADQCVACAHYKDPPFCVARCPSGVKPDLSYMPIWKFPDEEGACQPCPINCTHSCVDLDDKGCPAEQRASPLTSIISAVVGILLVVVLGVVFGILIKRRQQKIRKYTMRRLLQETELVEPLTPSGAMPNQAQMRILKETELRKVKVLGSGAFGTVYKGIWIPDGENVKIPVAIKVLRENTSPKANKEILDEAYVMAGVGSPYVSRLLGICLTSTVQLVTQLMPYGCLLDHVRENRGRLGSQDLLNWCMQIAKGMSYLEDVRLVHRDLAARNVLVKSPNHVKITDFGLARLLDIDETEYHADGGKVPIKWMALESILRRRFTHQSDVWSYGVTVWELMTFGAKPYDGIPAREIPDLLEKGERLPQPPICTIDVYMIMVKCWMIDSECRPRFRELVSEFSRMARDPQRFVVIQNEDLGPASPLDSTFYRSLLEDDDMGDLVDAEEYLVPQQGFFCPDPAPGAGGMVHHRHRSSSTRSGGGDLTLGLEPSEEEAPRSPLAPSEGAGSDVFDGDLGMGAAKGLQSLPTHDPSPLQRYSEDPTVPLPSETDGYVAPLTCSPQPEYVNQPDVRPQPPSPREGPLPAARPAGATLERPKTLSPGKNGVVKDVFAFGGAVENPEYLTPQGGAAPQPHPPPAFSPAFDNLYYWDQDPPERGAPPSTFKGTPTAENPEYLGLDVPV

[11] = biological target: Hepatocyte growth factor receptor (Homo sapiens) (UniProt P08581); test: Inhibition of cMet at 10 uM; parameters: scale not given: the % may be the effect or the level left
[12] = organism: Homo sapiens; test: Inhibition of PKA at 10 uM; parameters: scale not given: the % may be the effect or the level left
[13] = biological target: Glycogen synthase kinase-3 beta (Homo sapiens) (UniProt P49841); test: Inhibition of GSK3-beta at 10 uM; parameters: scale not given: the % may be the effect or the level left
[14] = biological target: RAC-alpha serine/threonine-protein kinase (Homo sapiens) (UniProt P31749); test: Inhibition of PKB/Akt at 10 uM; parameters: scale not given: the % may be the effect or the level left
RAC-alpha serine/threonine-protein kinase (Homo sapiens), sequence (P31749 whole entry): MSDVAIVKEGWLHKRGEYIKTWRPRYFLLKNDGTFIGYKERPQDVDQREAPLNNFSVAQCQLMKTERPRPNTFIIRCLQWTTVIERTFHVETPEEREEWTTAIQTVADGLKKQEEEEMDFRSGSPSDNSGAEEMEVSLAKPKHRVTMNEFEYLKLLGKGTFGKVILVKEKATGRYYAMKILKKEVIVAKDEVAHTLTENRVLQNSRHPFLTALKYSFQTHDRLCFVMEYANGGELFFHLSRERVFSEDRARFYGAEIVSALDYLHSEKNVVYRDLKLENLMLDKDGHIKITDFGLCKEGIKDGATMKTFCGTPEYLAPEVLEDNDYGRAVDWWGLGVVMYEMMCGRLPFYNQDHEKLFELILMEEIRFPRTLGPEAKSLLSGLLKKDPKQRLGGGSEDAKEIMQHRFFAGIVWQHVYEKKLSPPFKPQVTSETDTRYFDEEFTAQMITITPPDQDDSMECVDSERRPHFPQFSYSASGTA

[15] = organism: Homo sapiens; test: Inhibition of bcr-Abl at 10 uM; parameters: scale not given: the % may be the effect or the level left
[16] = organism: Homo sapiens; test: Inhibition of Cdk1 at 10 uM; parameters: scale not given: the % may be the effect or the level left
[17] = biological target: RAF proto-oncogene serine/threonine-protein kinase (Homo sapiens) (UniProt P04049); test: Inhibition of Raf1 at 10 uM; parameters: scale not given: the % may be the effect or the level left
[18] = biological target: Cyclin-dependent kinase 2 (Homo sapiens) (UniProt P24941); test: Inhibition of Cdk2 at 10 uM; parameters: scale not given: the % may be the effect or the level left

SMILES | IC50 [1] [µM] | IC50 [2] [nM] | IC50 [3] [nM] | Activity [4] [%] | Activity [5] [%] | Activity [6] [%] | Activity [7] [%] | Activity [8] [%] | Activity [9] [%] | Activity [10] [%] | Activity [11] [%] | Activity [12] [%] | Activity [13] [%] | Activity [14] [%] | Activity [15] [%] | Activity [16] [%] | Activity [17] [%] | Activity [18] [%]
O=C(Nc1ccc(Oc2ccccc2)cc1)c1ccnn1CCc1ccncc1 | 5.25 | 3220 | > 10000 | > 30 | > 30 | > 30 | > 30 | > 30 | < 30 | > 30 | > 30 | > 30 | > 30 | > 30 | > 30 | > 30 | > 30 | > 30
CN(C(=O)c1ccnn1CCc1ccncc1)c1ccc(Cl)cc1 | > 10 | > 10000 | – | – | – | – | – | – | – | – | – | – | – | – | – | – | – | –
O=C(Nc1ccc(OC(F)(F)F)cc1)c1cc2ccccc2n1CCc1ccncc1 | > 10 | > 10000 | > 10000 | > 30 | > 30 | > 30 | > 30 | > 30 | < 30 | > 30 | > 30 | > 30 | > 30 | > 30 | > 30 | > 30 | > 30 | > 30
Cc1nn(CCc2ccncc2)c(C(=O)Nc2ccc(OC(F)(F)F)cc2)c1C | > 10 | > 10000 | > 10000 | > 30 | > 30 | > 30 | > 30 | > 30 | < 30 | > 30 | > 30 | > 30 | > 30 | > 30 | > 30 | > 30 | > 30 | > 30
O=C(Nc1ccc(Cl)cc1)c1ccnn1CCc1noc2ccccc12 | > 10 | > 10000 | > 10000 | > 30 | > 30 | > 30 | > 30 | > 30 | < 30 | > 30 | > 30 | > 30 | > 30 | > 30 | > 30 | > 30 | > 30 | > 30

The next compounds have a lower IC50 [1] than those just listed; values first:

IC50 [1] [µM] | IC50 [2] [nM] | IC50 [3] [nM] | Activity [4] [%] | Activity [5] [%] | Activity [6] [%] | Activity [7] [%] | Activity [8] [%] | Activity [9] [%] | Activity [10] [%] | Activity [11] [%] | Activity [12] [%] | Activity [13] [%] | Activity [14] [%] | Activity [15] [%] | Activity [16] [%] | Activity [17] [%] | Activity [18] [%] | SMILES
0.38 | 180 | 1220 | > 30 | > 30 | > 30 | > 30 | > 30 | < 30 | > 30 | > 30 | > 30 | > 30 | > 30 | > 30 | > 30 | > 30 | > 30 | O=C(Nc1cnc2ccccc2c1)c1ccnn1CCc1ccncc1
0.86 | 260 | 120 | > 30 | > 30 | > 30 | > 30 | > 30 | < 30 | > 30 | > 30 | > 30 | > 30 | > 30 | > 30 | > 30 | > 30 | > 30 | O=C(Nc1ccc(Cl)c(Cl)c1)c1ccnn1CCc1ccncc1
3.86 | 940 | 2250 | > 30 | > 30 | > 30 | > 30 | > 30 | < 30 | > 30 | > 30 | > 30 | > 30 | > 30 | > 30 | > 30 | > 30 | > 30 | CC(C)(C)c1ccc(NC(=O)c2nccn2CCc2ccncc2)cc1
